Results from patent US20140288071A1, “INHIBITORS OF NOTUM […] AND METHODS OF THEIR USE” (priority 2011, published 2014).
pEC50, pIC50: −log10 of the molar value.

How the values were obtained:
[1] = test system: F1 male hybrid (129×C57) mice; test: Midshaft femur cortical thickness by microCT in treated mice; assay type: in vivo; details: 25 days; for increase in midshaft femur cortical thickness: second study
Method: The compound was administered in the animals' diet. Four groups of mice were used: control (N=12); 25 mg/kg compound (N=9); 83 mg/kg compound (N=9); and an additional group wherein Li2CO3 was administered in the diet (0.1%) (N=9).
Midshaft femur cortical thickness was measured using a Scanco μCT40. […] For the Li2CO3 group, a decrease in cortical bone thickness of 2% (p=0.90) was observed. […]
Midshaft femur cortical thickness was measured by microCT (Scanco μCT40). […]

[2] = target: T1, human notum pectinacetyltransferase (Homo sapiens, UniProt Q6P988); test: Reporter assay (CellSensor LEF/TCF-bla FreeStyle 293F cells, Wnt3a and notum conditioned media); assay type: cell-based
T1 construct: made in house; conditioned medium used
T1 sequence (Q6P988 20-496): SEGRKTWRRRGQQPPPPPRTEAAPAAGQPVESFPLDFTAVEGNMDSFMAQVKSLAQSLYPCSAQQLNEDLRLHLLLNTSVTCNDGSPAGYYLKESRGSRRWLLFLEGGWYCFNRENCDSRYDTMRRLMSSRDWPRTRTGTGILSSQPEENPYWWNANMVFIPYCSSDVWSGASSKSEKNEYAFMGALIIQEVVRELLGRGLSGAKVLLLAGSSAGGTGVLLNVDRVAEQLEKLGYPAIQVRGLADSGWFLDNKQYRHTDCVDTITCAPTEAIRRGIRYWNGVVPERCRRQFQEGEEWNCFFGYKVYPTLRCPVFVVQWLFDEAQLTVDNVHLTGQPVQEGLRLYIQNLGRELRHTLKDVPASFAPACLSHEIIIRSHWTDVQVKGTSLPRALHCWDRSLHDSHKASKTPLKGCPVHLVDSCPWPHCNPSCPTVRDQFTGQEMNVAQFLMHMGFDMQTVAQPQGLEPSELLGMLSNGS
Method: Plasmid containing human notum pectinacetyltransferase in pcDNA3.1(+) vector was transfected into HEK293 cells and clones were selecting by growing in presence of 400 ug/mL of G418. […] L cells overexpressing and secreting Wnt3a into the conditioned media were purchased from ATCC.
The assay protocol was as follows. […] The cell growth medium consisted of DMEM with 10% Dialyzed FBS, 5 μg/ml Blasticidin (Invitrogen, R210-01), 0.1 mM NEAA, 25 mM HEPES and 1×GPS. Cells were then trypsinized by first rinsing with PBS, followed by addition of 5 mL of trypsin and incubation of plates at room temperature for two minutes. A total of 10 mL of assay media (Opti-MEM, plus 0.5% dialyzed FBS, 0.1 mM NEAA, 1 mM sodium pyruvate, 10 mM HEPES, 1×GPS) was then added per 15 cm plate. Cells were counted and suspended at 0.75 million cells per mL. […] After incubation of cells at 37° C. for 3 hours, 10 μL of 30 mM LiCl in assay medium was added per well, followed by incubation at 37° C. for another 3 hours. […] Ten μL of the Wnt3a/notum pentinacetyltransferase mixture was then transferred from Greiner plates to each well of the 384-well plates containing the CellSensor cells. After incubation of cells overnight at 37° C., reactions were developed by addition of […] of 1×CCF4 (Invitrogen, Catalogue number K1085) to each well, covering the entire 384-well plate, and gentle rocking in the dark at room temperature for 3 hours.

[3] = target: T1, human notum pectinacetyltransferase; test: Binding assay (OPTS esterase substrate, fluorimetric); assay type: biochemical; details: OPTS substrate 5 μM
Method: Plasmid containing human notum pectinacetyltransferase in pcDNA3.1(+) vector was transfected into HEK293 cells and clones were selecting by growing in presence of 400 ug/mL of G418. Condition media from these cells was used for the assay.

SMILES | pEC50 [2] | pIC50 [3] | further results
Cc1sc2ncnc(SCC(=O)O)c2c1C [2-((5,6-dimethylthieno[2,3-d]pyrimidin-4-yl)thio)acetic acid] | – | – | increase in cortical bone thickness (midshaft femur) compared to control ([1]; first study, 25 mg/kg in diet, starting at 10.7 weeks of age, p=0.04): 9%; increase in cortical bone thickness (midshaft femur) compared to control ([1]; first study, 83 mg/kg in diet, starting at 10.7 weeks of age, p=0.07): 8%; increase in midshaft femur cortical thickness ([1]; 8 mg/kg in diet, starting at 10.7 weeks of age, p=0.19): 4%; increase in midshaft femur cortical thickness ([1]; 24 mg/kg in diet, starting at 10.7 weeks of age, p=0.05): 6%
CCc1sc2ncnc(SCC(=O)O)c2c1Br [2-((5-bromo-6-ethylthieno[2,3-d]pyrimidin-4-yl)thio)acetic acid] | > 6.00 | > 7.60 | –
CC(C)c1sc2ncnc(SCC(=O)O)c2c1Br [2-((5-bromo-6-isopropylthieno[2,3-d]pyrimidin-4-yl)thio)acetic acid] | > 6.00 | > 7.60 | –
Cc1sc2ncnc(SCC(=O)O)c2c1Br [2-((5-bromo-6-methylthieno[2,3-d]pyrimidin-4-yl)thio)acetic acid] | > 6.00 | > 7.60 | –
CCc1sc2ncnc(SCC(=O)O)c2c1Cl [2-((5-chloro-6-ethylthieno[2,3-d]pyrimidin-4-yl)thio)acetic acid] | > 6.00 | > 7.60 | –
CC(C)c1sc2ncnc(SCC(=O)O)c2c1Cl [2-((5-chloro-6-isopropylthieno[2,3-d]pyrimidin-4-yl)thio)acetic acid] | > 6.00 | > 7.60 | increase in cortical bone thickness (midshaft femur) compared to control ([1]; 5 mg/kg twice daily oral gavage, starting at 8.7 weeks of age, p=0.002): 6%; increase in cortical bone thickness (midshaft femur) compared to control ([1]; 10 mg/kg twice daily oral gavage, starting at 8.7 weeks of age, p=0.007): 5%; increase in cortical bone thickness (midshaft femur) compared to control ([1]; 15 mg/kg twice daily oral gavage, starting at 8.7 weeks of age, p=0.001): 6%
Cc1sc2ncnc(SCC(=O)N(C)C)c2c1Cl [2-((5-chloro-6-methylthieno[2,3-d]pyrimidin-4-yl)thio)-N,N-dimethylacetamide] | > 6.00 | > 7.60 | –
Cc1sc2ncnc(SCC(=O)NCCC#N)c2c1Cl [2-((5-chloro-6-methylthieno[2,3-d]pyrimidin-4-yl)thio)-N-(2-cyanoethyl)acetamide] | > 6.00 | > 7.60 | –
Cc1sc2ncnc(SCC(=O)NCCN3CCOCC3)c2c1Cl [2-((5-chloro-6-methylthieno[2,3-d]pyrimidin-4-yl)thio)-N-(2-morpholinoethyl)acetamide] | > 6.00 | > 7.60 | –
Cc1sc2ncnc(SCC(=O)NCC#N)c2c1Cl [2-((5-chloro-6-methylthieno[2,3-d]pyrimidin-4-yl)thio)-N-(cyanomethyl)acetamide] | > 6.00 | > 7.60 | –
Cc1sc2ncnc(SCC(=O)NCc3ccco3)c2c1Cl [2-((5-chloro-6-methylthieno[2,3-d]pyrimidin-4-yl)thio)-N-(furan-2-ylmethyl)acetamide] | > 6.00 | > 7.60 | –
CCNC(=O)CSc1ncnc2sc(C)c(Cl)c12 [2-((5-chloro-6-methylthieno[2,3-d]pyrimidin-4-yl)thio)-N-ethylacetamide] | > 6.00 | > 7.60 | –
CCCc1sc2ncnc(SCC(=O)O)c2c1Cl [2-((5-chloro-6-propylthieno[2,3-d]pyrimidin-4-yl)thio)acetic acid] | > 6.00 | > 7.60 | –
Cc1sc2ncnc(SCC(=O)O)c2c1C1CC1 [2-((5-cyclopropyl-6-methylthieno[2,3-d]pyrimidin-4-yl)thio)acetic acid] | > 5.30 | > 7.60 | –
O=C(O)CSc1ncnc2sc3c(c12)CCC3 [2-((6,7-dihydro-5H-cyclopenta[4,5]thieno[2,3-d]pyrimidin-4-yl)thio)acetic acid] | > 5.30 | > 7.60 | –
Cc1c(Br)sc2ncnc(SCC(=O)O)c12 [2-((6-bromo-5-methylthieno[2,3-d]pyrimidin-4-yl)thio)acetic acid] | > 6.00 | > 7.60 | –
O=C(O)CSc1ncnc2c(C3CC3)c(Cl)sc12 [2-((6-chloro-7-cyclopropylthieno[3,2-d]pyrimidin-4-yl)thio)acetic acid] | – | – | increase in cortical bone thickness (midshaft femur) compared to control ([1]; 3 mg/kg daily oral gavage, starting at 8.7 weeks of age, p=0.003): 7%; increase in cortical bone thickness (midshaft femur) compared to control ([1]; 10 mg/kg daily oral gavage, starting at 8.7 weeks of age, p<0.001): 10%; increase in cortical bone thickness (midshaft femur) compared to control ([1]; 30 mg/kg daily oral gavage, starting at 8.7 weeks of age, p<0.001): 13%

SMILES | pEC50 [2] | pIC50 [3] | further results
Cc1c(Cl)sc2c(SCC(=O)NCCC#N)ncnc12 [2-((6-chloro-7-methylthieno[3,2-d]pyrimidin-4-yl)thio)-N-(2-cyanoethyl)acetamide] | > 6.00 | > 7.60 | –
COCCNC(=O)CSc1ncnc2c(C)c(Cl)sc12 [2-((6-chloro-7-methylthieno[3,2-d]pyrimidin-4-yl)thio)-N-(2-methoxyethyl)acetamide] | > 6.00 | > 7.60 | –
Cc1c(Cl)sc2c(SCC(=O)NCC#N)ncnc12 [2-((6-chloro-7-methylthieno[3,2-d]pyrimidin-4-yl)thio)-N-(cyanomethyl)acetamide] | > 6.00 | > 7.60 | –
CCNC(=O)CSc1ncnc2c(C)c(Cl)sc12 [2-((6-chloro-7-methylthieno[3,2-d]pyrimidin-4-yl)thio)-N-ethylacetamide] | > 6.00 | > 7.60 | –
Cc1cc2c(SCC(=O)O)ncnc2s1 [2-((6-methylthieno[2,3-d]pyrimidin-4-yl)thio)acetic acid] | > 5.00 | > 6.60 | –
Cc1sc2c(SCC(=O)O)ncnc2c1C1CC1 [2-((7-cyclopropyl-6-methylthieno[3,2-d]pyrimidin-4-yl)thio)acetic acid] | > 6.00 | > 7.60 | –
Cc1csc2c(SCC(=O)O)ncnc12 [2-((7-methylthieno[3,2-d]pyrimidin-4-yl)thio)acetic acid] | > 4.82 | > 6.60 | –
O=C([O-])[O-].[Li+].[Li+] [Li2CO3, reference compound] | – | – | decrease in cortical bone thickness (midshaft femur) compared to control ([1]; first study, 0.1% in diet, p=0.90): 2%
Cc1sc2ncnc(SCC(=O)NCCc3cn[nH]c3)c2c1Cl [N-(2-(1H-pyrazol-4-yl)ethyl)-2-((5-chloro-6-methylthieno[2,3-d]pyrimidin-4-yl)thio)acetamide] | > 6.00 | > 7.30 | –
Cc1sc2ncnc(SCC(=O)NC#N)c2c1C [N-cyano-2-((5,6-dimethylthieno[2,3-d]pyrimidin-4-yl)thio)acetamide] | > 6.00 | > 7.60 | –
CCCCOC(=O)CSc1ncnc2sc(C)c(C)c12 [butyl 2-((5,6-dimethylthieno[2,3-d]pyrimidin-4-yl)thio)acetate] | > 6.00 | > 7.60 | –
Cc1sc2ncnc(SCC(=O)OC(C)C)c2c1C [isopropyl 2-((5,6-dimethylthieno[2,3-d]pyrimidin-4-yl)thio)acetate] | > 6.00 | > 7.60 | –
Cc1sc2ncnc(SCC(=O)OC(C)C)c2c1Cl [isopropyl 2-((5-chloro-6-methylthieno[2,3-d]pyrimidin-4-yl)thio)acetate] | > 6.00 | > 7.60 | –
COC(=O)CSc1ncnc2sc(C)c(C)c12 [methyl 2-((5,6-dimethylthieno[2,3-d]pyrimidin-4-yl)thio)acetate] | > 6.00 | > 7.60 | –
COC(=O)CSc1ncnc2c(C)c(Cl)sc12 [methyl 2-((6-chloro-7-methylthieno[3,2-d]pyrimidin-4-yl)thio)acetate] | > 6.00 | > 7.60 | –
CCCOC(=O)CSc1ncnc2sc(C)c(C)c12 [propyl 2-((5,6-dimethylthieno[2,3-d]pyrimidin-4-yl)thio)acetate] | > 6.00 | > 7.60 | –
